Test: Particle size distribution of acetaminophen drug substance by laser-diffraction method (dry measurement)
Type: physicochemical
Source text: The acetaminophen to be used in the present invention (also referred to as “the present acetaminophen”) has a particle size distribution in which d10 is generally 5 to 200 μm, preferably 10 to 150 μm, more preferably 12 to 100 μm, and d90 is generally 200 to 1800 μm, preferably 250 to 1600 μm, more preferably 280 to 1450 μm. Although there are some differences in the particle size distribution among lots, the unpulverized acetaminophen generally has the above-specified particle size distribution. In contrast, although there are some differences in the particle size distribution of a pulverized product of acetaminophen among the manufacturers of the drug substance and production lots, a pulverized product of acetaminophen generally has a particle size distribution in which the d10 is 3 to 10 μm and d90 is 100 to 250 μm, and therefore the particle diameters of the pulverized product of acetaminophen are smaller compared with those of the present acetaminophen. In the present invention, the particle size distribution is determined by a volume distribution evaluation employing a laser-diffraction method (Measuring Instrument: e.g., Mastersizer 2000 or Mastersizer 3000 (Malvern), Dispersion compression air pressure: 2 to 4 Bar), and the terms “d10”, “d50”, and “d90” refer to particle diameters at a volume cumulative 10% point, a volume cumulative 50% point, and a volume cumulative 90% point, respectively, as observed from the smaller diameter side in the particle size distribution. “a laser-diffraction method” is also referred to as “a laser-diffraction scattering method” Each of unpulverized products of acetaminophen (lots A to P) and pulverized products of acetaminophen (lots a to b) was subjected to a particle size distribution measurement using a particle measurement method (dry measurement) by a laser-diffraction method. As an instrument, a dry automated dispersion unit microtray (Mastersizer 2000 or Mastersizer 3000, Malvern) was used, the dispersion compression air pressure was 2 Bar or 4 Bar, and the analysis of particle size distribution was performed by a volume conversion method. […] The range of the particle size distribution in the present invention is determined with taking the above-mentioned finding into consideration. The lots of the acetaminophen drug substances shown in Table 1 are different from each other with respect to the conditions for manufacturing thereof, such as temperature and humidity. […] For example, the results of (1) to (2) of lot E and (1) to (12) of lot H in Table 1 are the results for different measurement samples of the same lots. As apparent from the results, the measurement results may vary depending on the zones of sampling even when the samples are of the same lot or depending on the types of measurement instrument to be used even when the measurement is carried out by the same method.

[1] = Mastersizer 2000, laser diffraction, volume distribution, dry, listed as A
[2] = Mastersizer 2000, laser diffraction, volume distribution, dry, listed as a
[3] = Mastersizer 2000, laser diffraction, volume distribution, dry, listed as B
[4] = Mastersizer 2000, laser diffraction, volume distribution, dry, listed as b
[5] = Mastersizer 2000, laser diffraction, volume distribution, dry, listed as C
[6] = measurement instrument printed as dash, listed as c
[7] = Mastersizer 2000, laser diffraction, volume distribution, dry, listed as D
[8] = measurement instrument printed as dash, listed as d
[9] = Mastersizer 2000, laser diffraction, volume distribution, dry, listed as E
[10] = Mastersizer 3000, laser diffraction, volume distribution, dry
[11] = Mastersizer 2000, laser diffraction, volume distribution, dry, listed as F
[12] = Mastersizer 2000, laser diffraction, volume distribution, dry, listed as G
[13] = Mastersizer 2000, laser diffraction, volume distribution, dry, listed as H
[14] = Mastersizer 2000, laser diffraction, volume distribution, dry, listed as I
[15] = Mastersizer 2000, laser diffraction, volume distribution, dry, listed as J
[16] = Mastersizer 2000, laser diffraction, volume distribution, dry, listed as K
[17] = Mastersizer 2000, laser diffraction, volume distribution, dry, listed as L
[18] = Mastersizer 2000, laser diffraction, volume distribution, dry, listed as M
[19] = Mastersizer 2000, laser diffraction, volume distribution, dry, listed as N
[20] = Mastersizer 2000, laser diffraction, volume distribution, dry, listed as O
[21] = Mastersizer 2000, laser diffraction, volume distribution, dry, listed as P

SMILES: CC(=O)Nc1ccc(O)cc1 [Lot A, acetaminophen]
- Particle Diameters D10 [1]: 20 μm
- Particle Diameters D90 [1]: 320 μm
- Particle Diameters D10 [2]: 4 μm
- Particle Diameters D90 [2]: 166 μm

SMILES: CC(=O)Nc1ccc(O)cc1 [Lot B, acetaminophen]
- Particle Diameters D10 [3]: 30 μm
- Particle Diameters D90 [3]: 551 μm
- Particle Diameters D10 [4]: 4 μm
- Particle Diameters D90 [4]: 144 μm

SMILES: CC(=O)Nc1ccc(O)cc1 [Lot C, acetaminophen]
- Particle Diameters D10 [5]: 26 μm
- Particle Diameters D90 [5]: 419 μm
- Particle Diameters D10 [6]: 6 μm
- Particle Diameters D90 [6]: 104 μm

SMILES: CC(=O)Nc1ccc(O)cc1 [Lot D, acetaminophen]
- Particle Diameters D10 [7]: 20 μm
- Particle Diameters D90 [7]: 464 μm
- Particle Diameters D10 [8]: 10 μm
- Particle Diameters D90 [8]: 192 μm

SMILES: CC(=O)Nc1ccc(O)cc1 [Lot E, acetaminophen]
- Particle Diameters D10 [9]: 16 μm
- Particle Diameters D90 [9]: 361 μm
- Particle Diameters D10 [10]: 66 μm
- Particle Diameters D90 [10]: 1290 μm

SMILES: CC(=O)Nc1ccc(O)cc1 [Lot F, acetaminophen]
- Particle Diameters D10 [11]: 31 μm
- Particle Diameters D90 [11]: 488 μm

SMILES: CC(=O)Nc1ccc(O)cc1 [Lot G, acetaminophen]
- Particle Diameters D10 [12]: 24 μm
- Particle Diameters D90 [12]: 432 μm

SMILES: CC(=O)Nc1ccc(O)cc1 [Lot H, acetaminophen]
- Particle Diameters D10 [13]: 23 μm
- Particle Diameters D90 [13]: 429 μm

SMILES: CC(=O)Nc1ccc(O)cc1 [Lot I, acetaminophen]
- Particle Diameters D10 [14]: 22 μm
- Particle Diameters D90 [14]: 433 μm

SMILES: CC(=O)Nc1ccc(O)cc1 [Lot J, acetaminophen]
- Particle Diameters D10 [15]: 27 μm
- Particle Diameters D90 [15]: 404 μm

SMILES: CC(=O)Nc1ccc(O)cc1 [Lot K, acetaminophen]
- Particle Diameters D10 [16]: 22 μm
- Particle Diameters D90 [16]: 442 μm

SMILES: CC(=O)Nc1ccc(O)cc1 [Lot L, acetaminophen]
- Particle Diameters D10 [17]: 30 μm
- Particle Diameters D90 [17]: 486 μm

SMILES: CC(=O)Nc1ccc(O)cc1 [Lot M, acetaminophen]
- Particle Diameters D10 [18]: 27 μm
- Particle Diameters D90 [18]: 419 μm

SMILES: CC(=O)Nc1ccc(O)cc1 [Lot N, acetaminophen]
- Particle Diameters D10 [19]: 26 μm
- Particle Diameters D90 [19]: 439 μm

SMILES: CC(=O)Nc1ccc(O)cc1 [Lot O, acetaminophen]
- Particle Diameters D10 [20]: 24 μm
- Particle Diameters D90 [20]: 387 μm

SMILES: CC(=O)Nc1ccc(O)cc1 [Lot P, acetaminophen]
- Particle Diameters D10 [21]: 20 μm
- Particle Diameters D90 [21]: 424 μm

— patent US11458102B2, “Acetaminophen preparation, and method for producing same” (NIPPON ZOKI PHARMACEUTICAL CO., LTD., priority 2017, dated 2022)
